Values of other authors as cited in US20240139123A1, “COMPOSITIONS AND METHODS FOR IMPROVING BRAIN FUNCTION” (Health Via Modern Nutrition Inc., priority 2021, published 2024).

Key:
[1] = rats, diet supplemented as 30% of calories
[2] = animal models
[3] = animal and in vitro studies
[4] = Schizophrenia-like rat model
NF-κB activation = details: in vitro
[5] = patient with Alzheimer's disease dementia, 20-month oral administration

C[C@@H](O)CCOC(=O)C[C@@H](C)O [(R)-3-hydroxyburyl (R)-3-hydroxybutyrate]
cognitive and physical performance [1]: improved cognitive and physical performance

C=C(C)[C@@H]1CCC(C)=C[C@H]1c1c(O)cc(CCCCC)cc1O [CBD, cannabidiol]
anti-anxiety and antidepressant effects [2]: exhibited an anti-anxiety and antidepressant effects
anti-inflammatory properties [3]: strong anti-inflammatory properties
cognitive impairment and cortical transcriptional changes [4]: improve cognitive impairment and reverse cortical transcriptional changes
NF-κB activation (NF-κB activation): inhibits
reactive oxygen species (ROS) production by mitochondria (NF-κB activation): inhibits

C[C@@H](O)CCOC(=O)C[C@@H](C)O [ketone monoester]
mood, affect, self-care, cognitive and daily activity performance [5]: improved markedly in mood, affect, self-care, and cognitive and daily activity performance
